Test results as given in patent publication US20210330807A1, “NOVEL HYDROGEL CONJUGATES” (priority 2018, published 2021).

Assay: Stability of daptomycin in a transient daptomycin-linker hydrogel conjugate versus free daptomycin
Assay type: physicochemical
Conditions: pH 7.4 and 37° C.; at day seven; UPLC peak area ratio at 215 nm
Method: The relative stability of the covalently bound daptomycin in a transient daptomycin-linker hydrogel conjugate towards hydrolytic and other degradation pathways in comparison to free daptomycin was investigated. […] The supernatant of the carrier sample was exchanged five times within a week and the daptomycin purity in these samples was analyzed by UPLC. In parallel, analytical samples of the free daptomycin control solution were also analyzed by UPLC at the same incubation times. The purity of daptomycin in the samples was calculated as the ratio of the peak area of the intact daptomycin peak at 215 nm relative to the area sum of all daptomycin-related peaks identified at 215 nm.

## CCCCCCCCCC(=O)N[C@@H](Cc1c[nH]c2ccccc12)C(=O)N[C@H](CC(N)=O)C(=O)N[C@@H](CC(=O)O)C(=O)N[C@@H]1C(=O)NCC(=O)N[C@@H](CCCN)C(=O)N[C@@H](CC(=O)O)C(=O)N[C@H](C)C(=O)N[C@@H](CC(=O)O)C(=O)NCC(=O)N[C@H](CO)C(=O)N[C@@H]([C@H](C)CC(=O)O)C(=O)N[C@@H](CC(=O)c2ccccc2N)C(=O)O[C@@H]1C [daptomycin]
  purity of the free daptomycin in the solution control sample: 72%
